Data taken from patent US20150119349A1, “NEW ANTIFUNGAL COMPOSITIONS” (DSM IP ASSETS B.V., priority 2012, published 2015).

How the values were obtained:
Assay type in all cases: in vivo
Penicillium italicum [1] = experiment: Treatment of oranges inoculated with Penicillium italicum, natamycin/ferbam (Example 7); conditions: 20° C., 600 ppm ferbam
Description: (§1) Ten fresh, organic oranges were used per treatment. Each orange was soaked in a 180 ppm hypochlorite solution for 10 minutes, then rinsed thoroughly with fresh tap water and dried. The peel of each disinfected orange was wounded once using a cork borer according to the method described by de Lapeyre de Bellaire and Dubois (1987). Subsequently, each wound was inoculated with 10 μl of a Penicillium italicum suspension containing 1×10^5 of spores/ml. After incubation for 3 hours at 20° C., each wound and the orange peel area of 1 cm around the wound was treated with in total 150 μl of a freshly prepared aqueous antifungal composition comprising either 500 ppm natamycin (DSM Food Specialties, Delft, The Netherlands), 500 ppm propineb or both. Each antifungal composition also comprised 3.2% (w/w) beeswax, 0.8% (w/w) glycerol, 0.7% (w/w) polyoxyethylene sorbitan monostearate (Tween 60), 0.2% (w/w) polyoxyethylene sorbitan monooleate (Tween 80), 0.05% (w/w) methylhydroxyethyl-cellulose (MHEC), 0.03% (w/w) anti-foaming agent, 0.02% (w/w) xanthan gum, 0.02% (w/w) citric acid, 0.01% (w/w) lactic acid and 0.01% potassium sorbate. A composition without natamycin or propineb was used as control.
(§2) The treated oranges were incubated in a closed box in the dark at 20° C. and assessed on mould growth during a 17-day incubation period. The antifungal activity (in %) of the individual and combined active ingredients was determined by calculating the reduction in mould growth observed on the oranges treated with the antifungal composition in comparison to the mould growth on the oranges treated with the control composition according to the Colby method (Colby, 1967) described in Example 5.
The experiment was conducted as described in Example 6, except for the fact that each wounded and inoculated orange was treated with 150 μl of a freshly prepared aqueous antifungal composition comprising either 500 ppm natamycin (DSM Food Specialties, Delft, The Netherlands), 600 ppm ferbam or both. During the 17-day incubation period, the treated oranges were assessed on mould growth according to the method described in Example 6.

Botrytis cinerea [2] = experiment: Treatment of strawberries inoculated with Botrytis cinerea (Example 5); conditions: 500 ppm natamycin, 600 ppm propineb; for Number of moulded strawberries/total number of 12 strawberries / Observed antifungal activity O: 20° C., strawberries
Description: Twelve fresh, organic strawberries were used per treatment. Each strawberry was wounded with a 0.5 mm long cut and each wound was inoculated with 10 μl of a Botrytis cinerea suspension containing 1×10^5 of spores/ml. After a 3-hour incubation period at 20° C., each strawberry was dipped individually for 1 minute in a freshly prepared aqueous antifungal composition comprising either 500 ppm natamycin (DSM Food Specialties, Delft, The Netherlands), 600 ppm propineb or both. Each antifungal composition also comprised 3.2% (w/w) beeswax, 0.8% (w/w) glycerol, 0.7% (w/w) polyoxyethylene sorbitan monostearate (Tween 60), 0.1% (w/w) polyoxyethylene sorbitan monooleate (Tween 80), 0.05% (w/w) methylhydroxyethyl-cellulose (MH EC), 0.03% (w/w) anti-foaming agent, 0.02% (w/w) xanthan gum, 0.02% (w/w) citric acid, 0.01% (w/w) lactic acid and 0.01% potassium sorbate. A composition without natamycin or propineb was used as control. […] The treated strawberries were incubated in a closed box in the dark at 20° C. for 9 days.
During incubation, mould growth on the strawberries was assessed in a twofold manner: (i) the number of moulded strawberries per total of 12 strawberries was counted; and (ii) the antifungal activity (in %) of the individual and combined active ingredients was determined by calculating the reduction in mould growth observed on the strawberries treated with the antifungal composition in comparison to the mould growth on the strawberries treated with the control composition. The expected antifungal activity (E in %) of the combined antifungal composition comprising both active ingredients was calculated according to the Colby equation (Colby, 1967): […]
wherein X and Y are the observed antifungal activities (in %) of the individual active ingredients X and Y, respectively.

Penicillium italicum [3] = experiment: Treatment of oranges inoculated with Penicillium italicum, natamycin/propineb (Example 6); conditions: 20° C., 500 ppm propineb
Description: as §1, §2

Botrytis cinerea [4] = experiment: Treatment of sweet peppers inoculated with Botrytis cinerea (Example 8); conditions: 20° C., 200 ppm propineb
Description: Ten fresh, organic sweet peppers were used per treatment. Each sweet pepper was soaked in a 180 ppm hypochlorite solution for 10 minutes, then rinsed thoroughly with fresh tap water and dried. The peel of each disinfected sweet pepper was wounded once using a cork borer according to the method described by de Lapeyre de Bellaire and Dubois (1987). Subsequently, each wound was inoculated with 10 μl of a Botrytis cinerea suspension containing 1×10^5 of spores/ml. After incubation for 3 hours at 20° C., each wound and the skin area of 0.5 cm around the wound was treated with in total 75 μl of a freshly prepared aqueous antifungal composition comprising either 200 ppm natamycin (DSM Food Specialties, Delft, The Netherlands), 200 ppm propineb or both. Each antifungal composition also comprised 3.2% (w/w) beeswax, 0.8% (w/w) glycerol, 0.7% (w/w) polyoxyethylene sorbitan monostearate (Tween 60), 0.2% (w/w) polyoxyethylene sorbitan monooleate (Tween 80), 0.05% (w/w) methylhydroxyethyl-cellulose (MHEC), 0.03% (w/w) anti-foaming agent, 0.02% (w/w) xanthan gum, 0.02% (w/w) citric acid, 0.01% (w/w) lactic acid and 0.01% potassium sorbate. A composition without natamycin or propineb was used as control.
as §2, with “sweet peppers” for “oranges”, “27-day” for “17-day”

[5] = incubation day 7, 500 ppm natamycin
[6] = incubation day 8, 500 ppm natamycin
[7] = incubation day 9, 500 ppm natamycin
[8] = incubation day 10, 500 ppm natamycin
[9] = incubation day 11, 500 ppm natamycin
[10] = incubation day 12, 500 ppm natamycin
[11] = incubation day 13, 500 ppm natamycin
[12] = incubation day 14, 500 ppm natamycin
[13] = incubation day 15, 500 ppm natamycin
[14] = incubation day 17, 500 ppm natamycin
[15] = incubation day 11, 200 ppm natamycin
[16] = incubation day 12, 200 ppm natamycin
[17] = incubation day 13, 200 ppm natamycin
[18] = incubation day 15, 200 ppm natamycin
[19] = incubation day 18, 200 ppm natamycin
[20] = incubation day 24, 200 ppm natamycin
[21] = incubation days 20-22, 200 ppm natamycin
[22] = incubation days 25-27, 200 ppm natamycin

Row | Molecule | Observed antifungal activity O (Penicillium italicum [1]; [5]) | Observed antifungal activity O (Penicillium italicum [1]; [6]) | Observed antifungal activity O (Penicillium italicum [1]; [7]) | Observed antifungal activity O (Penicillium italicum [1]; [8]) | Observed antifungal activity O (Penicillium italicum [1]; [9]) | Observed antifungal activity O (Penicillium italicum [1]; [10]) | Observed antifungal activity O (Penicillium italicum [1]; [11]) | Observed antifungal activity O (Penicillium italicum [1]; [12]) | Observed antifungal activity O (Penicillium italicum [1]; [13]) | Observed antifungal activity O (Penicillium italicum [1]; [14]) | Number of moulded strawberries/total number of 12 strawberries (Botrytis cinerea [2]; Day 5) | Number of moulded strawberries/total number of 12 strawberries (Botrytis cinerea [2]; Day 6-9) | Observed antifungal activity O (Botrytis cinerea [2]; incubation day 4) | Observed antifungal activity O (Botrytis cinerea [2]; incubation day 5) | Observed antifungal activity O (Botrytis cinerea [2]; incubation day 6) | Observed antifungal activity O (Botrytis cinerea [2]; incubation day 7) | Observed antifungal activity O (Botrytis cinerea [2]; incubation day 8) | Observed antifungal activity O (Botrytis cinerea [2]; incubation day 9) | Observed antifungal activity O (Penicillium italicum [3]; [8]) | Observed antifungal activity O (Penicillium italicum [3]; [9]) | also measured
1 | CN(C)C(=S)[S-].CN(C)C(=S)[S-].CN(C)C(=S)[S-].[Fe+3] [Ferbam, ferbam] | 20% | 24% | 20% | 7% | 13% | 6% | 6% | 6% | 6% | 5% | – | – | – | – | – | – | – | – | – | – | –
2 | C[C@@H]1C/C=C/C=C/C=C/C=C/[C@H](O[C@@H]2O[C@H](C)[C@@H](O)[C@H](N)[C@@H]2O)C[C@@H]2O[C@](O)(C[C@@H](O)C[C@H]3O[C@@H]3/C=C/C(=O)O1)C[C@H](O)[C@H]2C(=O)O [Natamycin, natamycin] | 89% | 86% | 64% | 54% | 41% | 36% | 38% | 32% | 24% | 21% | 11/12 | 12/12 | 33% | 16% | 5.3% | 11% | 14% | 4.8% | 54% | 41% | Observed antifungal activity O (Penicillium italicum [3]; [10]): 36%; Observed antifungal activity O (Penicillium italicum [3]; [11]): 38%; Observed antifungal activity O (Penicillium italicum [3]; [12]): 32%; Observed antifungal activity O (Penicillium italicum [3]; [13]): 24%; Observed antifungal activity O (Penicillium italicum [3]; [14]): 21%; Observed antifungal activity O (Botrytis cinerea [4]; [15]): 84%; Observed antifungal activity O (Botrytis cinerea [4]; [16]): 80%; Observed antifungal activity O (Botrytis cinerea [4]; [17]): 79%; Observed antifungal activity O (Botrytis cinerea [4]; [18]): 78%; Observed antifungal activity O (Botrytis cinerea [4]; [19]): 75%; Observed antifungal activity O (Botrytis cinerea [4]; [20]): 59%; Observed antifungal activity O (Botrytis cinerea [4]; [21]): 71%; Observed antifungal activity O (Botrytis cinerea [4]; [22]): 57%
3 | propineb | – | – | – | – | – | – | – | – | – | – | 12/12 | 12/12 | 0% | 0% | 0% | 0% | 0% | 0% | 0% | 0% | Number of the 12 strawberries that showed mould growth (Botrytis cinerea [2]; after 5 through 9 days of incubation): 12; Observed antifungal activity O (Penicillium italicum [3]; [10]): 0%; Observed antifungal activity O (Penicillium italicum [3]; [11]): 0%; Observed antifungal activity O (Penicillium italicum [3]; [12]): 0%; Observed antifungal activity O (Penicillium italicum [3]; [13]): 0%; Observed antifungal activity O (Penicillium italicum [3]; [14]): 0%; Observed antifungal activity O (Botrytis cinerea [4]; [15]): 0%; Observed antifungal activity O (Botrytis cinerea [4]; [16]): 0%; Observed antifungal activity O (Botrytis cinerea [4]; [17]): 0%; Observed antifungal activity O (Botrytis cinerea [4]; [18]): 0%; Observed antifungal activity O (Botrytis cinerea [4]; [19]): 0%; Observed antifungal activity O (Botrytis cinerea [4]; [20]): 0%; Observed antifungal activity O (Botrytis cinerea [4]; [21]): 0%; Observed antifungal activity O (Botrytis cinerea [4]; [22]): 0%
